Experimental data taken from patent US20170231911A1, “METHODS AND COMPOSITIONS FOR IMPROVING OUTCOMES OF LIPOSOMAL CHEMOTHERAPY” (Merrimack Pharmaceuticals, Inc., priority 2013, published 2017).

Key:
[1] = tested on: BT474-M3 breast cancer tumor cells; settings: cyclophosphamide 170 mg/kg pre-dose
Procedure: NCR/nu mice are inoculated with 15×10^6 BT474-M3 cells (into the mammary fat pad, in 50 μl media), 20×10^6 MDA-MB-453 (s.c. into the right flank of the mouse in 100 μl of media) or 10×10^6 MCF-7 HER2 cells (into the mammary fat pad, in 50 μl media). […] When tumors reached an average volume of 200-300 mm^3, mice are pre-dosed or not with cyclophosphamide (i.p. 170 mg/kg) at different time points as indicated. Mice are subsequently dosed with DiI5-labeled anthracycline-loaded anti-HER2 immunoliposome-targeted liposomal doxorubicin (3 mg/kg), DiI5-labelled liposomal doxorubicin PLD (3 mg/kg), or free doxorubicin all at (3 mg/kg). […]
Tumor, heart and the dorsal skin are collected and frozen at −80° for further HPLC doxorubicin quantification.
Tumors, hearts and dorsal skin are weighed and minced. […] Supernatants and doxorubicin standards are analyzed by HPLC (Dionex) using a C18 reverse phase column (Synergi Polar-RP 80A 250×4.60 mm 4 μm column). […] The doxorubicin peak is detected at 6.9 min using an in-line fluorescence detector excited at 485 nm, and emitting at 590 nm. The extraction efficiency of doxorubicin from tumor, heart and skin tissues is estimated using internal control tissues spiked with known amounts of doxorubicin, and sample readings are corrected to account for the extraction efficiency. […]

[2] = 96 hours after cyclophosphamide treatment

Procedure for BT474-M3 tumor: Slides are air-dried and mounted with ProLong® Gold with Hoechst® stain to counterstain nuclei. Cleaved caspase 3, γ-H2AX, cleaved PARP and cytokeratin stainings are performed on FFPE-sections (5 μm thick). After deparaffinization and rehydration, heat-mediated antigen retrieval is performed on a in a pre-treatment module (Thermo Scientific, Waltham, Mass.) in citrate buffer (pH 6) for 25 min at 102° C. After antigen retrieval, slides are stained on a Lab Vision Autostainer® 360 (Thermo Scientific). Endogenous peroxidase activity is blocked with Peroxidazed® 1 (10 min at RT) followed by a washing step with TBST and a protein blocking step with Background Sniper (10 min at RT). Next, slides are incubated with the primary antibodies diluted in Da Vinci Green or Signal Stain® Antibody diluent for 1 hr at room temperature (RT). After washing, slides are incubated with secondary antibodies for 30 min at RT Antibodies used are goat anti-mouse Alexa Fluor® 488 and goat anti-rabbit Alexa Fluor® 647, diluted in Da Vinci Green, for the γ-H2AX and cleaved caspase 3 antibodies, respectively; and EnVision®+ System-HRP labeled Polymer anti-rabbit (for the signal amplification of the cleaved PARP signal) containing the secondary antibody for cytokeratin (goat anti-mouse Alexa Fluor® 555) for the cleaved PARP and cytokeratin double staining. After washing, for the signal amplification of cleaved PARP, samples are incubated with TSA™ Cyanine 5 Tyramide Reagent for 10 min at RT. Slides are washed and counterstained with Hoechst followed by a wash step and mounting with ProLong® Gold. Slides are imaged on an Aperio® FL slide scanner at 20× magnification.
Images are analyzed using rulesets written in Definiens® Developer XD 2 (Definiens, Munich, Germany). Images are analyzed as full tumor or heart tissues. […]
The extent of cleaved PARP positive tumor cells is determined in cleaved PARP and cytokeratin double stained tumor sections. […]

SMILES: O.O=P1(N(CCCl)CCCl)NCCCO1 (stereo not shown) [cyclophosphamide, 2-[bis(2-chloroethyl)amino]tetrahydro-2H-1,3,2-oxazaphosphorine 2-oxide monohydrate]
- effect of cyclophosphamide on non-target organs such as skin or heart [1]: no effects were observed
- effect on non-tumor cells (BT474-M3 tumor; [2]): non-tumor cells were unaffected
- interstitial space vs control (BT474-M3 tumor; [2]): significantly more interstitial space than the control cell sample
- tumor cell apoptosis, tumor cell density and interstitial space (BT474-M3 tumor; tissue harvested 48 hr-120 hr post cyclophosphamide): induction of tumor cell apoptosis and consequent reduction of tumor cell density and increase in interstitial space
